Reference: patent US4560545A, “Basic aluminum magnesium carbonate” (Anphar S.A., priority 1978, dated 1985)
Read-outs that look alike come from different tables or passages of the source.

Key:
ulcers [1] = test: 18 hour pyloric ligature: incidence of ulcers; type: in vivo; conditions: rats, 18 hours ligature
pepsin = conditions: rats, 4 hour ligature; for reduction of pepsin enzyme activity of gastric juice: at the higher doses
Text: (§1) In a further series of experiments the detergent action of bile was used to sensitize the rat stomach to the ulcerogenic action of indomethacin.

[2] = 4 hour pyloric ligature of the stomach: pH and total acid content of stomach contents; conditions: rats, 31.25-500 mg/kg orally 1 hour before sacrifice
Text: as §1

ulcers [3] = test: bile-sensitized stomach, ulcerogenic action of indomethacin; conditions: rat stomach sensitized with bile, 31.25-125 mg/kg orally
Text: as §1

[4] = antacid activity in simulated gastric juice (modified Holbert technique, automatic titrator); type: physicochemical; conditions: for Vol. of gastric juice added: added at 0.7 ml/min. until pH fell below 3; for pH of suspension after 1 min.: about 0.125 g powder in 20 ml, 37° C.
Method: Approximately 0.125 g of powder was added to 20 ml of simulated gastric juice (U.S.P.) and stirred vigorously at 37° C. The pH was registered at 1, 5 and 10 minutes and then the automatic burette was started and synthetic gastric juice was added at a rate of 0.7 ml/min. until the pH fell below 3. The time taken and the amount of gastric juice added to reach pH 3 was observed.

gastric acid secretion = conditions: human volunteers, pentagastrin 6 μg/kg i.m., 1 g suspension 30 minutes later, versus aluminium hydroxide gel
Method: Gastric acid secretion was induced by injection of pentagastrin (6 μg/kg i.m.). Thirty minutes later a suspension of 1 g of compound I or aluminium hydroxide was given (2 groups of 6 volunteers, double blind parallel). Samples of gastric juice were taken before giving pentagastrin (basal level), 30 minutes after injection of pentagastrin and at intervals of 30, 60, 90 and 120 minutes after giving the antacids. In each case the pH, free acid content and pepsin content were measured.

[5] = Method: The ability of compound I to absorb bile acids was measured at pH 7 and pH 4 (the analytical method was based on the reaction between sulphuric acid, furfural and cholic acid; Pettenkofer, Ann. Chem. Pharm. 52, 90, 1884). The product was suspended in the appropriate buffer and a solution of the bile acid or ox bile was added, samples being taken at intervals of time.
[6] = pH stat, pH 4, suspension in water
[7] = gastric juice DP, double quantity of pepsin
[8] = gastric juice DP, with double quantity of pepsin
[9] = gastric juice N, normal U.S.P. simulated gastric juice
[10] = gastric juice SP, without pepsin

Molecule | reduction of pepsin enzyme activity of gastric juice (pepsin) | effect on pH of the stomach contents [2] | reduction of total acid content [2] | reduction of the incidence of ulcers (inhibition) (ulcers [3]) | Vol. of gastric juice added [4, 7] | pH of suspension after 1 min. [4, 8] | pH of suspension after 1 min. [4, 9] | Vol. of gastric juice added ([4]; gastric juice N, normal U.S.P.) | pH of suspension after 1 min. [4, 10] | Vol. of gastric juice added [4, 10] | also measured
[OH][Al]([OH])[OH] [aluminium hydroxide, reference compound] | without effect on the pepsin activity | much less influence on pH | 12% | 32% |  |  |  |  |  |  | reduction in ulceration (ulcers [1]; 125 mg/kg): 43%
Magaldrate U.S.P. [F2] |  |  |  |  | 2.40 mL | 2.65 | 1.95 | 1.70 mL | 1.40 | 1.92 mL | 
basic aluminium magnesium carbonate [compound I] | 78.9% | dose dependent increases in the pH of the stomach contents | up to 85% | up to 54% | 22.36 mL | 4.55 | 4.25 | 21.2 mL | 4.00 | 10.9 mL | reduction in the incidence of ulcers compared with placebo treated controls (ulcers [1]; 31.25 mg/kg orally at the same time as the operation): 58%; reduction of pepsin enzyme activity, pH of the gastric juice readjusted to 2 (pepsin; higher doses, pH readjusted to 2 (optimal for pepsin activity)): 32.5%; antipepsin effect (pepsin content of gastric juice) (gastric acid secretion): greater antipepsin effect; reduction of free hydrochloric acid levels in gastric juice (gastric acid secretion): reduced the free hydrochloric acid levels more rapidly and had a longer duration of action than aluminium hydroxide gel; buffering capacity ([4]; U.S.P. simulated gastric juice): highest buffering capacity; velocity of neutralisation ([4]; pH after 1 minute in the optimal zone, pH 3-5): high velocity of neutralisation; ability to absorb acid in the presence of pepsin ([4]; simulated gastric juice with pepsin versus without): increased ability to absorb acid in the presence of pepsin; Percentage absorption of bile acids ([5]; Cholic Acid, Buffer pH 4, 1 hr): 80.5 Percentage; Percentage absorption of bile acids ([5]; Cholic Acid, Buffer pH 4, 3 hr): 86.3 Percentage; Percentage absorption of bile acids ([5]; Cholic Acid, Buffer pH 7, 1 hr): 0 Percentage; Percentage absorption of bile acids ([5]; Cholic Acid, Buffer pH 7, 3 hr): 12 Percentage; Percentage absorption of bile acids ([5]; Ox bile, Buffer pH 4, 1 hr): 69.0 Percentage; Percentage absorption of bile acids ([5]; Ox bile, Buffer pH 4, 3 hr): 70.0 Percentage; Percentage absorption of bile acids ([5]; Ox bile, Buffer pH 7, 1 hr): 17.3 Percentage; Percentage absorption of bile acids ([5]; Ox bile, Buffer pH 7, 3 hr): 25.8 Percentage; Percentage absorption of bile acids ([5]; Taurocholic acid, Buffer pH 4, 1 hr): 65.4 Percentage; Percentage absorption of bile acids ([5]; Taurocholic acid, Buffer pH 4, 3 hr): 71.7 Percentage; Percentage absorption of bile acids ([5]; Taurocholic acid, Buffer pH 7, 1 hr): 0.6 Percentage; Percentage absorption of bile acids ([5]; Taurocholic acid, Buffer pH 7, 3 hr): 20.8 Percentage; acid-binding capacity [6]: higher at pH 4 than any of the other substances
dry aluminium hydroxide gel U.S.P. [F1] |  |  |  |  | 4.80 mL | 2.79 | 2.93 | 7.40 mL | 3.30 | 17.43 mL | 
